Reference: the supplement of paper PMC13380429

Key:
Conditions in all cases: 72 h
Calu-3 [1] = test: drug sensitivity score (DSS) for viability; higher = more toxic; extreme values may be limits of the assay
Vero E6 [2] = test: as above
U2OS [3] = test: as above
HepG2 [4] = test: as above
Caco-2 [5] = test: as above
Calu-3 [6] = test: relative viability EC50 (midpoint between 100% and the lowest measured viability); higher = less toxic
Vero E6 [7] = test: as above
U2OS [8] = test: as above
HepG2 [9] = test: as above
Caco-2 [10] = test: as above
Calu-3 [11] = test: cell viability relative to DMSO; higher = less toxic
Vero E6 [12] = test: as above
U2OS [13] = test: as above
HepG2 [14] = test: as above
Caco-2 [15] = test: as above

Structure (SMILES)	drug sensitivity score (Calu-3 [1])	drug sensitivity score (Vero E6 [2])	drug sensitivity score (U2OS [3])	drug sensitivity score (HepG2 [4])	drug sensitivity score (Caco-2 [5])	relative viability EC50 (Calu-3 [6])	relative viability EC50 (Vero E6 [7])	relative viability EC50 (U2OS [8])	relative viability EC50 (HepG2 [9])	relative viability EC50 (Caco-2 [10])	cell viability (Calu-3 [11]; 1 nM)	cell viability (Calu-3 [11]; 10 nM)	cell viability (Calu-3 [11]; 100 nM)	cell viability (Calu-3 [11]; 1000 nM)	cell viability (Calu-3 [11]; 10000 nM)	cell viability (Vero E6 [12]; 1 nM)	cell viability (Vero E6 [12]; 10 nM)	cell viability (Vero E6 [12]; 100 nM)	cell viability (Vero E6 [12]; 1000 nM)	cell viability (Vero E6 [12]; 10000 nM)	cell viability (U2OS [13]; 1 nM)	cell viability (U2OS [13]; 10 nM)	cell viability (U2OS [13]; 100 nM)	cell viability (U2OS [13]; 1000 nM)	cell viability (U2OS [13]; 10000 nM)	cell viability (HepG2 [14]; 1 nM)	cell viability (HepG2 [14]; 10 nM)	cell viability (HepG2 [14]; 100 nM)	cell viability (HepG2 [14]; 1000 nM)	cell viability (HepG2 [14]; 10000 nM)	cell viability (Caco-2 [15]; 1 nM)	cell viability (Caco-2 [15]; 10 nM)	cell viability (Caco-2 [15]; 100 nM)	cell viability (Caco-2 [15]; 1000 nM)	cell viability (Caco-2 [15]; 10000 nM)
COc1ccccc1N1CCN(CC(O)COc2cc(OC)c(OC)c(OC)c2)CC1 (stereo not given) [enciprazine]	0	0	0	0	0	> 10 µM	> 10 µM	> 10 µM	> 10 µM	> 10 µM	101%	106%	100%	98.1%	105%	100%	101%	101%	99.1%	99.4%	94.9%	98.2%	95.1%	96%	94.9%	98.3%	99.9%	91.4%	94.2%	96%	104%	97.9%	89.3%	93.8%	99.8%
Cc1ccc(-c2ccc(F)cc2COc2ccc(CCC(=O)O)cc2)cc1 [TUG-891]	0	0	0	0	0	> 10 µM	> 10 µM	> 10 µM	> 10 µM	> 10 µM	93.6%	97.7%	105%	96.6%	105%	101%	102%	100%	97.9%	99%	97.8%	101%	94.2%	93.6%	99.2%	109%	96.7%	100%	117%	110%	93.8%	91.7%	87.9%	98.5%	92.4%
Nc1nc(=O)c2nc(CNc3ccc(C(=O)N[C@@H](CCC(=O)O)C(=O)O)cc3)cnc2[nH]1 [folic-acid]	0	0	0	0	0	> 10 µM	> 10 µM	> 10 µM	> 10 µM	> 10 µM	93.5%	102%	88.1%	106%	97.8%	99.9%	102%	97%	101%	92.8%	97.7%	101%	97%	99.4%	96.4%	106%	101%	99.8%	97.2%	99.4%	89.2%	103%	101%	95.3%	90.7%
C[C@@]1(c2cc(-c3cncnc3)c(F)cc2F)CCSC(N)=N1	0	0	0	0	0	> 10 µM	> 10 µM	> 10 µM	> 10 µM	> 10 µM	98%	104%	102%	101%	101%	105%	103%	105%	101%	96%	102%	97.5%	102%	97.4%	100%	106%	112%	101%	108%	97.3%	98.7%	92.8%	92.3%	95.1%	99.4%
c1ccc(Oc2cccnc2)cc1 [CI-844]	0	0	0	0	0	> 10 µM	> 10 µM	> 10 µM	> 10 µM	> 10 µM	104%	101%	89.9%	94.1%	106%	101%	103%	100%	99.8%	98.7%	100%	103%	94.9%	97.2%	96.1%	102%	103%	94.3%	97.4%	106%	96%	97.6%	90.4%	93.1%	93.2%
O=C(NCCN1CCC(n2c(=O)[nH]c3ccccc32)CC1)c1cc2cc(F)ccc2[nH]1 [FIPI]	0	0	0	0	0	> 10 µM	> 10 µM	> 10 µM	> 10 µM	> 10 µM	92.2%	101%	99.8%	98%	96.8%	95%	95.9%	99%	96.6%	103%	97%	94%	100%	97.4%	94.8%	90.7%	110%	98.2%	93.7%	91.1%	95.7%	101%	100%	101%	106%
